The target in assay [1] is Tyrosine-protein kinase JAK2 (Homo sapiens, UniProt O60674). Nature of the assay: Inhibition of JAK2 (unknown origin).
Assay [2] has as its target Mitogen-activated protein kinase 1 (Homo sapiens, UniProt P28482). Put plainly: Inhibition of ERK2 (unknown origin).
In assay [3] the target is Protein kinase C alpha type (Homo sapiens, UniProt P17252). Put plainly: Inhibition of PKCA (unknown origin).
Assay [4] concerns the target Cyclin-dependent kinase 2 (Homo sapiens, UniProt P24941). Nature of the assay: Inhibition of CDK2 (unknown origin).
For assay [5], the target named is T1, Calcium/calmodulin-dependent protein kinase type IV (Homo sapiens, UniProt Q16566).
T1 sequence (Q16566 whole entry): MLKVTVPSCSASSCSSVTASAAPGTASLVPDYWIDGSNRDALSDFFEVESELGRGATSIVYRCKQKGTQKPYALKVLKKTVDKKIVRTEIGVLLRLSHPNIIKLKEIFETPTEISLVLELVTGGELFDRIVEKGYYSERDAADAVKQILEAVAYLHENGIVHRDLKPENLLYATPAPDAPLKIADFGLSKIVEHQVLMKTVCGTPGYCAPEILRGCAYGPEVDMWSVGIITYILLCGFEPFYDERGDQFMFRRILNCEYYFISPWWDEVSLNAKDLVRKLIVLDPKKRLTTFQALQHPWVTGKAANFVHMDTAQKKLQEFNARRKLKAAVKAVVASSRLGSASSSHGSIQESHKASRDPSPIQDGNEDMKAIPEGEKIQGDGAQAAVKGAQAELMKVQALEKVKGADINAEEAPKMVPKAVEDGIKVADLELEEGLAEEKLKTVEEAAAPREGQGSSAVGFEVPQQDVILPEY
Put plainly: Inhibition of CAMK4 (unknown origin).

Assay [6] addresses T2, Receptor-type tyrosine-protein kinase FLT3 (Homo sapiens, UniProt P36888).
T2 sequence (P36888 whole entry): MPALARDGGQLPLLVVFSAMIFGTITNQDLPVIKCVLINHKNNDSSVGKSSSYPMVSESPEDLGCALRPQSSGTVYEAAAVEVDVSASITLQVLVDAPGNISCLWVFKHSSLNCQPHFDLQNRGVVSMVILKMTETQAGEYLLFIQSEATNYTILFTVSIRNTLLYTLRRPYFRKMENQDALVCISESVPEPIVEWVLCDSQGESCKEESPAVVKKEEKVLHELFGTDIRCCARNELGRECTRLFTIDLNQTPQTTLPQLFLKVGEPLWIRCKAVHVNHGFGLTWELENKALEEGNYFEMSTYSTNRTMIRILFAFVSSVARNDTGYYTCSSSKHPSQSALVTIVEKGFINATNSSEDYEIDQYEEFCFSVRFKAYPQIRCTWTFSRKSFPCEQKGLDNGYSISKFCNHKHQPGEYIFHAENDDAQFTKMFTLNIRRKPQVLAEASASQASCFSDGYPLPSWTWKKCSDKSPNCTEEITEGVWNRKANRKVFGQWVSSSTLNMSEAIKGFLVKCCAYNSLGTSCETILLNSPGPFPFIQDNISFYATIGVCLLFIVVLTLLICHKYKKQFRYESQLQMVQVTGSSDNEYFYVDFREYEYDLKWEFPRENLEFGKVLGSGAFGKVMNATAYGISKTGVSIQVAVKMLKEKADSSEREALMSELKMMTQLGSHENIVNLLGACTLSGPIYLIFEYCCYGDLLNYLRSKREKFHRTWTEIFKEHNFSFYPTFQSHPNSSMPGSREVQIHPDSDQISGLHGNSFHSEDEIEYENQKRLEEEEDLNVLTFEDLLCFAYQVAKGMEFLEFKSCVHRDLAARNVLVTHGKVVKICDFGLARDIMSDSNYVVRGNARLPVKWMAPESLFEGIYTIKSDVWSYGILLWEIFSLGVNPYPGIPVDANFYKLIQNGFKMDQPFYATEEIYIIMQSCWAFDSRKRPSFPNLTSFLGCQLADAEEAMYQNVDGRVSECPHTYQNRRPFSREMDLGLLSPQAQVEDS
Nature of the assay: Inhibition of FLT3 (unknown origin).

The target in assay [7] is T3, Serine/threonine-protein kinase Chk1 (Homo sapiens, UniProt O14757).
T3 sequence (O14757 whole entry): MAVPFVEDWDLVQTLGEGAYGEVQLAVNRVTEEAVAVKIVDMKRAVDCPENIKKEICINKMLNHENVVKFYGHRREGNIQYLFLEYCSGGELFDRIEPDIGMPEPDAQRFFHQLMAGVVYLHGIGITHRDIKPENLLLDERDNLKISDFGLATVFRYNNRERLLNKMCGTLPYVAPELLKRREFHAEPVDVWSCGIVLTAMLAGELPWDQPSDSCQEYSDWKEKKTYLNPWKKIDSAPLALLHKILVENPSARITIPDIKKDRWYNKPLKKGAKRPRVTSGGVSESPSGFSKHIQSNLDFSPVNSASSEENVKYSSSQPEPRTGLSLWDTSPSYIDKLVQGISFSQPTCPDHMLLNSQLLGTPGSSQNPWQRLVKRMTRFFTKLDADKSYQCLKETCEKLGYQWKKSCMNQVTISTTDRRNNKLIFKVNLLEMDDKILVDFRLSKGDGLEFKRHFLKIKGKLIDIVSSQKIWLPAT
Nature of the assay: Inhibition of CHK1 (unknown origin).

Assay [8] deals with T4, Inhibitor of nuclear factor kappa-B kinase subunit beta (Homo sapiens, UniProt O14920).
T4 sequence (O14920 whole entry): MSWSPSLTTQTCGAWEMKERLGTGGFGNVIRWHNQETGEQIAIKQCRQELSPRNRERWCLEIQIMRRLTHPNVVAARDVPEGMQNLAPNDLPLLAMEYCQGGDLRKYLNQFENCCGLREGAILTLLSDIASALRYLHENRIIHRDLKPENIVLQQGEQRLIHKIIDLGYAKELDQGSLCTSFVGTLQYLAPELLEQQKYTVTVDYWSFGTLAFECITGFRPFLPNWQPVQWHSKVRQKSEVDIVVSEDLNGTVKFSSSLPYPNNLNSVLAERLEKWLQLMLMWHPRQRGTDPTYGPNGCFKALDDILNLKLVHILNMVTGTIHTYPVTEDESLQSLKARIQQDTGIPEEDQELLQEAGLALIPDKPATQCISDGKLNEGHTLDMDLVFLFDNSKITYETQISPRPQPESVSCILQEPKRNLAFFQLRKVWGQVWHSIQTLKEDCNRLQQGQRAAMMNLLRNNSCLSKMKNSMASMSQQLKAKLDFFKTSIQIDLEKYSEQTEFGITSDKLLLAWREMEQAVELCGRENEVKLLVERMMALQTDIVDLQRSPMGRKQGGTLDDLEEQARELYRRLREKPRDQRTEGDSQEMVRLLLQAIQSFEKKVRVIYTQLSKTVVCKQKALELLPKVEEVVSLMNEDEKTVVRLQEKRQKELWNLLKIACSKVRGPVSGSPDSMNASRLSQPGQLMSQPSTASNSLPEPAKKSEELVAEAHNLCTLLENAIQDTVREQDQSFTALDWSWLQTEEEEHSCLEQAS
Put plainly: Inhibition of IKKB (unknown origin).

For assay [9], the target named is RAC-alpha serine/threonine-protein kinase (Homo sapiens, UniProt P31749). Put plainly: Inhibition of AKT1 (unknown origin).
Sequence of RAC-alpha serine/threonine-protein kinase (P31749 whole entry): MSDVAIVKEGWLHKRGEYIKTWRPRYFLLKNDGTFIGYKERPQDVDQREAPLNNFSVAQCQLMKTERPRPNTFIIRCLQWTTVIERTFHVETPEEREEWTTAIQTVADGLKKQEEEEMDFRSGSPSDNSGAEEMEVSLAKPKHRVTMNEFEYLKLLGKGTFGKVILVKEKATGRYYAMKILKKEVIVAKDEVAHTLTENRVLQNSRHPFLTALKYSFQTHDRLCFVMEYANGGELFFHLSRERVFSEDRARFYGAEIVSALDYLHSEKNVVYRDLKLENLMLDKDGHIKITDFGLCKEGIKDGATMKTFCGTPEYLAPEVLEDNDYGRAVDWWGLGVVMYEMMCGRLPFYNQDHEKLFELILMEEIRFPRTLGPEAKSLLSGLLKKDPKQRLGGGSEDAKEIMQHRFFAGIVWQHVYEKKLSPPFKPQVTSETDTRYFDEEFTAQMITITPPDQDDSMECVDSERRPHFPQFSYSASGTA
Assay [10] addresses Serine/threonine-protein kinase PLK3 (Homo sapiens, UniProt Q9H4B4). Put plainly: Inhibition of PLK3 (unknown origin).

Structures are written as SMILES.

Sequence of Tyrosine-protein kinase JAK2 (O60674 whole entry): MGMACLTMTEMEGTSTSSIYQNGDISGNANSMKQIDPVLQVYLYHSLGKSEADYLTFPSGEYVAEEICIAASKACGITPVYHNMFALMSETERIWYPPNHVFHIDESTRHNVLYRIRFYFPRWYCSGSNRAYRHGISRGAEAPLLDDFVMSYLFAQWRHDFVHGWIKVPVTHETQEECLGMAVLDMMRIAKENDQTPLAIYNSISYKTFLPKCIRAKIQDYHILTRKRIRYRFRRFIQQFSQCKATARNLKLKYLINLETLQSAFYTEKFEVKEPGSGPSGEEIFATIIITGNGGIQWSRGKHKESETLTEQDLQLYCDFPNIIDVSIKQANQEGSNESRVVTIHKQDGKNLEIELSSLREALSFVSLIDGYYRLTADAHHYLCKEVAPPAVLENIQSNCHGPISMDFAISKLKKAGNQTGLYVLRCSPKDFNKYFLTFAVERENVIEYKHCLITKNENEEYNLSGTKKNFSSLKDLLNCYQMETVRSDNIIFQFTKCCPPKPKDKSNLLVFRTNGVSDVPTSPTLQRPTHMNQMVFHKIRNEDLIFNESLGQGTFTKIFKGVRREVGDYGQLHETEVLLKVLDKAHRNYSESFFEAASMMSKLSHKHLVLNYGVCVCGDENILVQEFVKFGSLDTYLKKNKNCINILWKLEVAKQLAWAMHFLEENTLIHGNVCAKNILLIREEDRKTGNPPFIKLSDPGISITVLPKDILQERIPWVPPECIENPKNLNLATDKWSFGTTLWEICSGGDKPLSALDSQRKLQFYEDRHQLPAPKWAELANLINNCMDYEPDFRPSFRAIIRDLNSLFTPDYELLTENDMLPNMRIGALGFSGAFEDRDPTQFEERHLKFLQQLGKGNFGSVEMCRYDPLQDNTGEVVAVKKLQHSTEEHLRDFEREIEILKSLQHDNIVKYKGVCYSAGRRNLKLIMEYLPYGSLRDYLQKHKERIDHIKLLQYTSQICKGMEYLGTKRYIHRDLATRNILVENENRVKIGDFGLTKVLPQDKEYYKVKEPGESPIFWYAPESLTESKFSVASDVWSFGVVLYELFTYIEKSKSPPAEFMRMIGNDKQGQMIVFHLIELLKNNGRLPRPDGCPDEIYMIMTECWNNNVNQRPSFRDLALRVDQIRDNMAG
Sequence of Mitogen-activated protein kinase 1 (P28482 whole entry): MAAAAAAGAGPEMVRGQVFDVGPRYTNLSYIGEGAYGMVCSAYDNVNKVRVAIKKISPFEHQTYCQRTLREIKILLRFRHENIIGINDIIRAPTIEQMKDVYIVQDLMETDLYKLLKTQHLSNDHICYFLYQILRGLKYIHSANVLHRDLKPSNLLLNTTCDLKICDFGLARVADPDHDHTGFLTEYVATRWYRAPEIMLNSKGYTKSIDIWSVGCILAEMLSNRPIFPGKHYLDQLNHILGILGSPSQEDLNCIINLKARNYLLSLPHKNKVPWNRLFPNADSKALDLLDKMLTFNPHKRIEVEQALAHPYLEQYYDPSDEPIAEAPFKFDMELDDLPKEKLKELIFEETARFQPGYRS
Sequence of Serine/threonine-protein kinase PLK3 (Q9H4B4 whole entry): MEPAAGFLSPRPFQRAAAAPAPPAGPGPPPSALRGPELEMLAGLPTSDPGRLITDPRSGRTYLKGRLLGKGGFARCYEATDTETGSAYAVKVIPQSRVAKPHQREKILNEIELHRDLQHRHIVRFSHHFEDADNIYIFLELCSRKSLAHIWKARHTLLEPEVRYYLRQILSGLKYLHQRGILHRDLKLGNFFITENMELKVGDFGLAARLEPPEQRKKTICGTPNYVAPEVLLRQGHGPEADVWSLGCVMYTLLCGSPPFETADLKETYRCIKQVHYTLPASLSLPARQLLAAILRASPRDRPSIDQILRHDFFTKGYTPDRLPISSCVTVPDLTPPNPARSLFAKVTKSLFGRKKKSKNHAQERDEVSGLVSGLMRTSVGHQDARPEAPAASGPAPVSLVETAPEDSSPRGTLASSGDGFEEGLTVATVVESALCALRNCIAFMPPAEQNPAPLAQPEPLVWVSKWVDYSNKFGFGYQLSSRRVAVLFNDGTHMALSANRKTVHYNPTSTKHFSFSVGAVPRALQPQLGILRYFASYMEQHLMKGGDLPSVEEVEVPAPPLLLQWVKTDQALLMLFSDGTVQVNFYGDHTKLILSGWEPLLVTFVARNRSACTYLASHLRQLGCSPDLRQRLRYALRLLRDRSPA

In general, IC50 refers to the concentration that inhibits the measured activity by half. `Cc1cn2c(-c3cn[nH]c3)cnc2c(Nc2cc(Cc3ccccn3)ns2)n1`: the IC50 in assay [1] is above 500 nM; in assay [2], above 500 nM; in assay [3], above 500 nM; in assay [4], above 500 nM; in assay [5], above 500 nM; in [6], 14 nM. Moreover, the IC50 in assay [7] was 360 nM; in assay [8] it was above 500 nM; in assay [9], above 500 nM; in [10] it was above 500 nM.

As for `CCN(CCO)Cc1cc(Nc2nc(C)cn3c(-c4cn[nH]c4)cnc23)sn1`, the IC50 is above 500 nM in assay [1]; above 500 nM in assay [2]; above 500 nM in [3]; above 500 nM in [4]; above 500 nM in [5]; 5 nM in [6]. Also, the IC50 in [7] was 13 nM; in assay [8] it was above 500 nM; in [9] it was above 500 nM; in [10] it was above 500 nM.

As to `Cc1cn2c(-c3cn[nH]c3)cnc2c(Nc2cc(C(NC(C)(C)C)c3ccccn3)ns2)n1` (single isomer, unassigned; (+)), the IC50 was above 1000 nM in [1]; above 1000 nM in assay [2]; above 1000 nM in [3]; above 1000 nM in [4]; above 1000 nM in assay [5]; 5 nM in assay [6]. Moreover, the IC50 is 7 nM in assay [7], above 1000 nM in [8], above 1000 nM in [9] and above 1000 nM in assay [10].

Source of the values: ChEMBL document CHEMBL4219148, “Discovery of a highly potent orally bioavailable imidazo-[1, 2-a]pyrazine Aurora inhibitor” (Bioorg Med Chem Lett, 2018).
